Laboratory results reported in patent publication US8206756B2, “Herbal composition for inflammatory disorders” (Piramal Life Sciences Limited, priority 2005, dated 2012).

Legend:
[1] = test system: THP-1 cell adhesion to HUVECs; assay: Adhesion of THP-1 mononuclear cells to HUVEC monolayers; format: cell-based, human; conditions: for Fluorescence Intensity: TNF-α 1 ng/ml; for Fold of control: unstimulated DMSO control = 1, stimulated = 18
Experimental: Adhesion studies were performed with the promonocytic cell line THP-1, which has been established as a useful model for monocytes in adhesion studies in Circ. Res., 97, 236-243, 2005, with modifications. THP-1 cells were washed twice with labeling medium (M200 plus LSGS). THP-1 cells (6×10^5 cells per ml) were labeled with 10 μg/ml bis-carboxyethyl-carboxyfluorescein acetoxymethylester (a fluorescent probe, BCECF-AM; Sigma) for 30 min at RT. After quenching with 0.1% BSA, the pellet was resuspended in labeling medium. To evaluate monocyte adhesion, HUVEC monolayers treated with TNF-α (1 ng/ml) in the presence or absence of various concentrations of test sample. The media was removed, washed and labeled-THP-1-cells were added to the wells (6×10^4 cells per well) and incubated for 10 minutes at RT in the dark. After co incubation, the wells were washed, filled with lysis buffer (0.1% Triton-X in 1.5 M Tris buffer) and incubated for 30 min. The fluorescence was measured using a fluorescent reader (PolarStar Optima, BMG Labtech) at an excitation peak of 485 nm and an emission peak of 520 nm. Values are means±SEM, representing fluorescent adhesion data. BAY 11-7082 [(E)-3-(4-methylphenylsulfonyl)-2-propenenitrile] was used as a standard and DMSO as vehicle control.

[2] = test system: TNF-α; assay: LPS-induced TNF-α production in hPBMCs (ELISA); format: cell-based; conditions: Homo sapiens, LPS 1 μg/ml, 5 h, hPBMC
Experimental: (§1) Primary screening—Human peripheral blood mononuclear cells (hPBMCs). TNF-α production by lipopolysaccharides (LPS) in hPBMCs was measured according to the method described by Jansky, L. et al (Physiol. Res. 52: 593-598, (2003)). Blood was collected from healthy donors into Potassium EDTA vacutainer tubes (BD vacutainer). The PBMCs were isolated using gradient centrifugation in Histopaque-1077 solution (Sigma). Isolated PBMCs were suspended in RPMI 1640 culture medium (Gibco BRL, Pasley, UK) containing 10% fetal bovine serum (FBS) (Hyclone, Utah, USA), 100 U/ml penicillin (Sigma Chemical Co. St Louis, Mo.) and 100 μg/ml streptomycin (Sigma Chemical Co. St Louis, Mo.). The cell concentration was adjusted to 1×10^6 cells/ml. The viability as determined by trypan blue dye exclusion was uniformly ≧98%. The cell suspension (100 μl) was added to the wells of a 96-well culture plate. Following cell plating, 79 μl of the culture medium and 1 μl of eight different concentrations of the test samples (final concentration 0.03, 0.1, 0.3, 1, 3, 10, 30, 100 μg/ml) dissolved in DMSO (dimethylsulfoxide, Sigma, Mo., USA) were added to the cells. The final concentration of DMSO was adjusted to 0.5%. The vehicle (0.5% DMSO) was used as control. Rolipram (100, 300 μM) was used as a standard. The plates were incubated for 30 min at 37° C. in an atmosphere of 5% CO2. Finally, 20 μl (10 μg/ml) per well of LPS, (Escherchia coli 0127:B8, Sigma Chemical Co., St. Louis, Mo.) was added, for a final concentration of 1 μg/ml. […] The % inhibition was recorded. Percent cytotoxicity of the test samples compared to control was evaluated.
The effect of the plant extract on the proinflammatory cytokines: TNF-α, interleukin-1β (IL-1β), interleukin-6 (IL-6) and interleukin-8 (IL-8) was measured using the supernatants generated in the primary screening assay. […]
The effect of the Compound 1, on the proinflammatory cytokines: TNF-α interleukin-1β (IL-1β), interleukin-6 (IL-6) and interleukin-8 (IL-8) was measured using the supernatants generated in the primary screening assay. […]

[3] = test system: hPBMCs; assay: Cellular viability test (MTS) in hPBMCs; format: cell-based, human; conditions: hPBMC
Experimental: as §1, with “standard.” for “standard. The plates were incubated for 30 min at 37° C. in an atmosphere of 5% CO2. Finally, 20 μl (10 μg/ml) per well of LPS, (Escherchia coli 0127:B8, Sigma Chemical Co., St. Louis, Mo.) was added, for a final concentration of 1 μg/ml.”

[4] = test system: DSS-induced colitis; assay: DSS-induced murine model of acute colitis; format: in vivo, C57BL/6J mice; conditions: 15 mg/kg injected from day 5 onwards till death
[5] = test system: atherosclerosis / hyperlipidemia; assay: Atherosclerosis model of high fat-fed hyperlipidemic hamsters; format: in vivo, Golden Syrian Hamsters; conditions: Fenofibrate 100 mpk, extract 200 mpk
Experimental: The treatment effects of the extract of example 1 on prevention of aortic lesion were determined by using atherosclerosis model of high fat-fed hyperlipidemic hamster.
Details of animals used: Male Golden Syrian Hamsters, which were 7-8 weeks old and weighed approximately 100 g to 120 g, were used for the experiment. Hamsters were randomly selected for treatment group placement. Animals were earmarked using a paint marker. Animals were separated and housed in groups of three in appropriately sized solid-bottom cages. Room lighting conditions were adjusted to 12 hour light and 12 hour dark cycle. During the acclimation period the diet was Purina 5001 (Research Diets, Inc. New Brunswick, N.J., USA). A high-fat diet consisting of Purina 5001 plus 10% coconut oil, 10% corn oil, 0.5% cholesterol, and 5% fructose was administered beginning on day 1 and continued throughout the duration of study. Hamsters were provided purified tap water throughout the study.
For pretreatment lipid values, animals were bled by retro-orbital puncture following an 18-hour fast and ˜1 ml of blood was collected in a 3 ml Vacutainer® tube containing K3 EDTA. Each blood sample was centrifuged (4000 rpm, 20 min, 4° C. using an Eppendorf C5804R) and the plasma separated and was analyzed for determination of triglyceride (TG), total cholesterol, high density cholesterol (HDL) and low density cholesterol (LDL).
Preparation of dosing solution: The extract of example 1 was dissolved in vehicle [CMC (0.5%)/Tween 80 (2%)] for 200 mpk (5 ml/kg BW) dosing. The resulting solution was a fine suspension after 12-15 minutes gentle sonication. Aliquots were prepared (˜2.3 ml/vial) and stored in a freezer and were used daily.
All groups of animals were dosed orally either with vehicle or with extract of example 1 (200 mpk) for 58 days. […]
On day 58, following the 16-18 hour fasting period, animals were bled by retro-orbital puncture and ˜1 ml of blood was collected in a 3 ml Vacutainer® tube containing K3 EDTA. Each blood sample was centrifuged (4000 rpm, 20 min, 4° C. using an Eppendorf C5804R) and the plasma sample was analyzed for TG, total cholesterol, HDL and LDL.
Necropsy: On day 59, the animals were fasted for 4 h and euthanized under carbon dioxide and plasma samples were collected via cardiac puncture for lipid profiling and other analyses. […] The heart, aortic arch, thoracic and abdominal aorta up to femoral bifurcation were removed and placed in 10% formalin for en face lesion quantification.
En face analysis: Connective fascia and adventia surrounding the thoracic aorta were removed as much as possible. […] Quantitation was performed using a Nikon SMZ-U microscope with an Optronics Camera head recording the photographs. […] Quantitation was done based on percentage lesion per area.

With `Cc1ccc(S(=O)(=O)/C=C/C#N)cc1` [BAY 11-7082, (E)-3-(4-methylphenylsulfonyl)-2-propenenitrile, reference compound] the “Fluorescence Intensity” value ([1]; 0.5 μM) was 18442, the Fold of control ([1]; 0.5 μM) was 10 and the “Fluorescence Intensity” value ([1]; 1 μM) was 14271. For the same compound, the Fold of control ([1]; 1 μM) was 8.
With `COc1ccc(C2CNC(=O)C2)cc1OC1CCCC1` (stereo not shown) [Rolipram] the inhibition at 100 µM ([2]; 100 μM) was 84%, the inhibition at 300 µM ([2]; 300 μM) was 90% and the “% Toxicity at 5 h” value ([3]; 100 μM) was 2%. For the same compound, the “% Toxicity at 5 h” value ([3]; 300 μM) was 21%.
“infliximab: Monoclonal antibody drug (Centocor), injected 15 mg/kg in the DSS colitis model” was tested, and the “Survival against DSS-induced colitic death” value [4] was “all animals in this group were dead”.
`CC(C)OC(=O)C(C)(C)Oc1ccc(C(=O)c2ccc(Cl)cc2)cc1` [Fenofibrate] was tested, and the “Plasma triglycerides level, Mean” value ([5]; day 58, oral, vehicle mean 2321.3) was 449.2, the “Plasma triglycerides level, % Change” value ([5]; day 58, versus vehicle) was −81% and the “Atherosclerosis progression (percentage lesion per area, en face aorta), Mean” value ([5]; day 59, vehicle mean 0.5025) was 0.0834. For the same compound, the “Atherosclerosis progression, % Change” value ([5]; versus vehicle) was −84%.
